# Experimental data published in patent US20250049806A1, “PHARMACEUTICAL COMPOSITION FOR PROVIDING TREATMENT FOR OR PREVENTING ALPORT SYNDROME” (UBE Corporation, priority 2021, published 2025).
# Assay: Transcellular transport test using Caco2 cell
# Assay type: in vitro ADME
# Details: human, Caco-2, apical-to-basolateral (A-to-B), pH=7.4, 10 µM compound
# Procedure: Caco2 cells (purchased from ATCC) were cultured in DMEM medium (Thermo Fisher Scientific, Inc., 11965) containing 10% FBS (Thermo Fisher Scientific, Inc., 10082) and 1% penicillin/streptomycin/amphotericin B (Thermo Fisher Scientific, Inc., 15240). A transcellular transport test was carried out in accordance with MultiScreen Caco2 Drug Transport Assembly in a 96-well system (Application Note AN1727EN, MultiScreen Caco-2 Assay System, Merck) by partially modifying it. The Caco2 cells were inoculated at a cell density of 4×10^4 cells/well onto a micropore polycarbonate insert of a 96-well plate (Merck, Millcell-96 culture insert plate 0.4 μm pore size, well membrane area=0.11 cm^2, PSHT004S5) and cultured for 20 to 22 days, and the resulting monolayer was used in the transcellular transport test. The medium of the inoculated cells was replaced with a fresh one every 3 to 4 days.
# Apical-to-basolateral (A-to-B) transport in the Caco2 cell monolayer membrane was performed by using HBSS (Thermo Fisher Scientific, Inc., 14025) medium (pH=7.4) containing 20 mM HEPES (Thermo Fisher Scientific, Inc., 15630), and adding HEPES-containing HBSS medium containing 10 µM compound (a 10 mM solution of the compound in DMSO was added at a 1000-fold dilution; final DMSO concentration: 0.1%) at 75 μL/well to the apical side and HEPES-containing HBSS medium supplemented with no compound at 250 μL/well to the basolateral side, followed by culture at 37° C. for 90 minutes. After culture, a 100 μL aliquot was collected from the basolateral side, and the concentration of a permeated compound was measured by LC-MS/MS under measurement conditions mentioned later. Papp (apparent permeability; cm/sec) was calculated from the determined concentration. Papp was determined according to the expression given below by calculating the slope (dA/dt; nmol/sec) of a straight line drawn between two points 0 minutes and zero amount of the compound in a graph plotted with an assay time (90 min) on the abscissa against the amount of the compound in the solution on the permeated side on the ordinate. As for an assay concentration, the concentration in the compound in the HEPES-containing HBSS medium containing the added compound was measured by UV-HPLC under measurement conditions mentioned later.
# C0: assay concentration, S: plate membrane area=0.11 cm^2
# • LC: LC20 or LC30 HPLC system manufactured by Shimadzu Corp. • Column: Phenomenex Kinetex C18 (50 mm×2.1 mm, 2.6 μm) • Column temperature: 40° C. • Flow rate: 0.3 mL/min • Mobile phase A: 0.1% aqueous formic acid solution • Mobile phase B: 0.1% formic acid, 50% acetonitrile/methanol mixed solution • Gradient: 0-2 min; A/B=90/10 to 10/90, 2-3 min; A/B=10/90, 3-3.01 min; A/B=10/90 to 90/10 • MS: Q-Trap3200 manufactured by AB Sciex Pte. Ltd. • Ionization: ESI • Mode: Positive
# • LC: LC20 or LC30 HPLC system manufactured by Shimadzu Corp. • Column: Phenomenex Kinetex C18 (100 mm×2.1 mm, 2.6 μm) • Column temperature: 40° C. • Flow rate: 0.25 mL/min • Mobile phase A: 0.1% aqueous formic acid solution • Mobile phase B: 0.1% formic acid, 50% acetonitrile/methanol mixed solution • Gradient: 0-3 min; A/B=90/10, 3-11 min; A/B=90/10 to 5/95, 11-15 min; A/B=5/95, 15-15.1 min; A/B=5/95 to 90/10 • UV detector: photodiode array detector
# A: Papp>1×10^−6 (cm/sec), B: 1×10^−6 (cm/sec)≥Papp>5×10^−7 (cm/sec), C: 5×10^−7 (cm/sec)≥Papp>1×10^−7 (cm/sec), or D: Papp≤1×10^−7 (cm/sec).
row,Compound,"Papp A→B at 90 min, 10 µM [×10⁻⁶ cm/s]"
1,"O=C(O)C[C@H](NC(=O)CNC(=O)c1cc(NC2=NCC(F)CN2)c2cn[nH]c2c1)c1cc(OC(F)F)cc(C(F)(F)F)c1 (stereo partly drawn) [24-(b), (3S)-3-(3-(difluoromethoxy)-5-(trifluoromethyl)phenyl)-3-(2-(4-((5-fluoro-1,4,5,6-tetrahydropyrimidin-2-yl)amino)-1H-indazole-6-carboxamido)acetamido)propanoic acid]",0.5 to 1
2,"O=C(O)C[C@H](NC(=O)CNC(=O)c1cc(NC2=NCC(F)CN2)c2cn[nH]c2c1)c1cccc(Cl)c1 (stereo partly drawn) [41-(b), (3S)-3-(3-chlorophenyl)-3-(2-(4-((5-fluoro-1,4,5,6-tetrahydropyrimidin-2-yl)amino)-1H-indazole-6-carboxamido)acetamido)propanoic acid]",> 1
3,"O=C(O)C[C@H](NC(=O)CNC(=O)c1cc(NC2=NCC(F)CN2)c2cn[nH]c2c1)c1cc(C(F)(F)F)ccc1F (stereo partly drawn) [11-(b), (3S)-3-(2-(4-((5-fluoro-1,4,5,6-tetrahydropyrimidin-2-yl)amino)-1H-indazole-6-carboxamido)acetamido)-3-(2-fluoro-5-(trifluoromethyl)phenyl)propanoic acid]",> 1
4,"O=C(O)C[C@H](NC(=O)CNC(=O)c1cc(NC2=NCCCN2)c2cn[nH]c2c1)c1cc(Cl)cc(C(F)(F)F)c1 [51-(b), (S)-3-(3-chloro-5-(trifluoromethyl)phenyl)-3-(2-(4-((1,4,5,6-tetrahydropyrimidin-2-yl)amino)-1H-indazole-6-carboxamido)acetamido)propanoic acid]",> 1
5,"Cc1cc(C)n(-c2cccc([C@H](CC(=O)O)NC(=O)CNC(=O)c3cc(NC4=NCC(F)CN4)c4cn[nH]c4c3)c2)n1 (stereo partly drawn) [44-(b), (3S)-3-(3-(3,5-dimethyl-1H-pyrazol-1-yl)phenyl)-3-(2-(4-((5-fluoro-1,4,5,6-tetrahydropyrimidin-2-yl)amino)-1H-indazole-6-carboxamido)acetamido)propanoic acid]",0.5 to 1
6,"Cc1cc([C@H](CC(=O)O)NC(=O)CNC(=O)c2cc(NC3=NCC(F)CN3)c3cn[nH]c3c2)cc(C(F)(F)F)c1 (stereo partly drawn) [4-(b), (3S)-3-(2-(4-((5-fluoro-1,4,5,6-tetrahydropyrimidin-2-yl)amino)-1H-indazole-6-carboxamido)acetamido)-3-(3-methyl-5-(trifluoromethyl)phenyl)propanoic acid]",> 1
7,"O=C(O)C[C@H](NC(=O)CNC(=O)c1cc(NC2=NCC(F)CN2)c2cn[nH]c2c1)c1ccc(OC(F)F)cc1 (stereo partly drawn) [46-(b), (3S)-3-(4-(difluoromethoxy)phenyl)-3-(2-(4-((5-fluoro-1,4,5,6-tetrahydropyrimidin-2-yl)amino)-1H-indazole-6-carboxamido)acetamido)propanoic acid]",> 1
8,"O=C(O)C[C@H](NC(=O)CNC(=O)c1cc(NC2=NCC(F)CN2)cc2[nH]ncc12)c1cc(I)cc(C(F)(F)F)c1 (stereo partly drawn) [54-(b), (3S)-3-(2-(6-((5-fluoro-1,4,5,6-tetrahydropyrimidin-2-yl)amino)-1H-indazole-4-carboxamido)acetamido)-3-(3-iodo-5-(trifluoromethyl)phenyl)propanoic acid]",0.1 to 0.5
9,"O=C(O)C[C@H](NC(=O)CNC(=O)c1cc(NC2=NCC(F)CN2)c2cn[nH]c2c1)c1cc(Br)cc(OC(F)F)c1 (stereo partly drawn) [26-(b), (3S)-3-(3-bromo-5-(difluoromethoxy)phenyl)-3-(2-(4-((5-fluoro-1,4,5,6-tetrahydropyrimidin-2-yl)amino)-1H-indazole-6-carboxamido)acetamido)propanoic acid]",> 1
10,"O=C(O)C[C@H](NC(=O)CNC(=O)c1cc(NC2=NCC(O)CN2)c2cn[nH]c2c1)c1cc(Cl)cc(C(F)(F)F)c1 (stereo partly drawn) [50-(b), (3S)-3-(3-chloro-5-(trifluoromethyl)phenyl)-3-(2-(4-((5-hydroxy-1,4,5,6-tetrahydropyrimidin-2-yl)amino)-1H-indazole-6-carboxamido)acetamido)propanoic acid]",> 1
